Results on 20 compounds are retold here after PubChem BioAssay (NCI).

SMILES strings stand for the structures. Several values for one entry are separate records, joined by “and”; a condition that tells them apart may be missing. Equal values may be shown once.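 96-well plates; 48 h exposure; 5 concentrations. Endpoints by linear interpolation between flanking doses. Not reached: highest tested concentration assigned. GI50 is the concentration that inhibits growth by half. Definition used: TGI = concentration required for complete inhibition of growth.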 Some results are limits rather than exact numbers.

Test systems include MALME-3M melanoma; HOP-92 NSCLC; SNB-75 CNS; MOLT-4 leukemia; UACC-257 melanoma; SF-295 CNS; MDA-MB-435; HT29 colon; COLO 205 colon; BT-549 breast.
What all share (assay): NCI-60 cell line screen, 48 h

For the compound `C=CCOc1ccc(C2(O)c3ccccc3C3=NCCCN32)cc1` (configuration not stated), the TGI in the test with MALME-3M melanoma is 27.4 µM; in the test on HOP-92 NSCLC, over 100 µM; in the test on SNB-75 CNS it was over 100 µM; with MOLT-4 leukemia, over 100 µM; in the test with UACC-257 melanoma, 52.7 µM; in the test on SF-295 CNS it was over 100 µM. In addition, the TGI with MDA-MB-435 was over 85.6 µM; with HT29 colon it was over 100 µM; in the test on COLO 205 colon it was 43.5 µM; with BT-549 breast, over 100 µM.
Take `COc1ccc2cc(C(C)C(=O)N3CCOC3=O)ccc2c1` (configuration not stated): the TGI in the test with MALME-3M melanoma, with HOP-92 NSCLC, in the test with SNB-75 CNS, in the test with MOLT-4 leukemia, in the test on UACC-257 melanoma and in the test with SF-295 CNS was over 100 µM each time. The TGI in the test with MDA-MB-435, in the test on HT29 colon, in the test with COLO 205 colon and in the test on BT-549 breast was over 100 µM each time.
Turning to `CN(C)CCOC1(Cc2ccc(F)cc2)CCC(C(C)(C)C)CC1` (configuration not stated), the TGI in the test on MALME-3M melanoma was 7.95 µM and 10.6 µM; in the test with HOP-92 NSCLC, 25.3 µM; in the test with SNB-75 CNS, 17.2 µM and 16.5 µM; in the test with MOLT-4 leukemia, 8.88 µM and 12.3 µM; in the test with UACC-257 melanoma, 13.4 µM and 12.1 µM; with SF-295 CNS it was 11.9 µM and 13.1 µM. The TGI was 15 µM and 12.3 µM in the test on MDA-MB-435; 9.5 µM and 8.3 µM in the test on HT29 colon; 4.7 µM and 5.66 µM with COLO 205 colon; 13.3 µM and 20.9 µM in the test on BT-549 breast. Further, the GI50 in the test with SNB-75 CNS was 4.03 µM and 8.49 µM; in the test with BT-549 breast, 3.29 µM and 8.02 µM.
Take `C=CC[C@]12C=C(OC)[C@@H](O)[C@](OC)(C(c3cc(OC)c4c(c3)OCO4)[C@H]1C)[C@H]2OC(C)=O` (some centres not stated): the TGI in the test on MALME-3M melanoma, with HOP-92 NSCLC, with SNB-75 CNS, with MOLT-4 leukemia, in the test with UACC-257 melanoma and with SF-295 CNS was over 100 µM in each case. The TGI in the test with MDA-MB-435, in the test on HT29 colon, with COLO 205 colon and in the test with BT-549 breast was over 100 µM in each case.
Consider `Cn1c2ccccc2c(=NNc2cccc(C(=O)O)c2)c2ccccc21`, for which the TGI is 38.3 µM with MALME-3M melanoma; 51.2 µM in the test on HOP-92 NSCLC; 54 µM in the test on SNB-75 CNS; 22.7 µM in the test on MOLT-4 leukemia; 58.6 µM with UACC-257 melanoma; 58.5 µM with SF-295 CNS. For the same compound, the TGI in the test on MDA-MB-435 was found to be 27.1 µM; with HT29 colon, 14.7 µM; with COLO 205 colon, 28.5 µM; with BT-549 breast, 62.8 µM.
`Cc1nc2sc3ccccc3n2c(=O)c1N=Nc1ccc(Cl)cc1`: the TGI with MALME-3M melanoma, with HOP-92 NSCLC, in the test with SNB-75 CNS, in the test with MOLT-4 leukemia, with UACC-257 melanoma and in the test on SF-295 CNS was over 100 µM throughout. Also, the TGI in the test with MDA-MB-435, in the test with HT29 colon, with COLO 205 colon and in the test with BT-549 breast was over 100 µM throughout.
With `CC(=O)[C@@]1(O)CC[C@H]2[C@@H]3C[C@H](C)C4=CC(=O)C=C[C@]4(C)[C@@]3(F)[C@@H](O)C[C@@]21C`, the TGI in the test on MALME-3M melanoma is over 100 µM; in the test with HOP-92 NSCLC, over 100 µM; in the test on SNB-75 CNS, over 91.9 µM; in the test on MOLT-4 leukemia, over 100 µM; in the test with UACC-257 melanoma, over 100 µM; with SF-295 CNS, over 100 µM. The TGI with MDA-MB-435, in the test with HT29 colon, in the test with COLO 205 colon and in the test with BT-549 breast was over 100 µM each time.
Take `N#Cc1c(Cl)cc(Cl)n2c1nc1ccccc12`: the TGI in the test on MALME-3M melanoma was 7.36 µM; with HOP-92 NSCLC it was over 21.9 µM; in the test on SNB-75 CNS, 32.7 µM; with MOLT-4 leukemia, over 28.8 µM; in the test with UACC-257 melanoma, 25.1 µM; in the test on SF-295 CNS, 32.4 µM. In addition, the TGI amounted to 35.3 µM with MDA-MB-435, 23.6 µM in the test with HT29 colon, 21.2 µM in the test on COLO 205 colon and 15.5 µM in the test with BT-549 breast.
As to `CCOC(=O)C1C2CCC1CC(=NNc1ccc([N+](=O)[O-])cc1[N+](=O)[O-])C2` (configuration not stated), the TGI is over 50 µM with MALME-3M melanoma; 48.7 µM in the test on HOP-92 NSCLC; over 50 µM in the test with SNB-75 CNS; over 50 µM in the test with MOLT-4 leukemia; over 50 µM in the test with UACC-257 melanoma; over 50 µM in the test with SF-295 CNS. In addition, the TGI with MDA-MB-435, in the test on HT29 colon, in the test with COLO 205 colon and with BT-549 breast was over 50 µM throughout.
On to `CC(C)NC(=O)OCCN=c1c2ccccc2ccc2ccccc12`, for which the TGI in the test on MALME-3M melanoma was over 100 µM; in the test with HOP-92 NSCLC, 88 µM; in the test on SNB-75 CNS, over 100 µM; in the test on MOLT-4 leukemia, 71.2 µM; in the test with UACC-257 melanoma it was over 100 µM; in the test on SF-295 CNS, over 100 µM. The TGI with MDA-MB-435, in the test on HT29 colon, in the test on COLO 205 colon and in the test on BT-549 breast was over 100 µM each time.
Regarding `C=CCOc1ccc(C2C(C(=O)OCC)C(=O)CC(C)(O)C2C(=O)OCC)cc1OC` (configuration not stated), the TGI in the test with MALME-3M melanoma, with HOP-92 NSCLC, in the test with SNB-75 CNS, with MOLT-4 leukemia, in the test on UACC-257 melanoma and with SF-295 CNS was over 100 µM throughout. The TGI with MDA-MB-435, with HT29 colon, with COLO 205 colon and in the test with BT-549 breast was over 100 µM throughout.
On to `CC(C)(C)OC(=O)NCCCNC1(c2cc3ccccc3s2)CCCCC1`, for which the TGI was 30.9 µM in the test on MALME-3M melanoma; 22.6 µM in the test on HOP-92 NSCLC; 30.2 µM in the test on SNB-75 CNS; 28.4 µM in the test with MOLT-4 leukemia; 30.8 µM in the test on UACC-257 melanoma; 28.4 µM in the test on SF-295 CNS. Also, the TGI was determined as 28.7 µM in the test on MDA-MB-435, 13.4 µM in the test with HT29 colon, 27.8 µM with COLO 205 colon and 27 µM with BT-549 breast.
On to `CCN1CCC(O)(/C=C/c2ccc(C)cc2C)C(C(=O)/C=C/c2ccc(C)cc2C)C1` (configuration not stated), for which the TGI turned out to be 11.4 µM in the test with MALME-3M melanoma; 3.8 µM with HOP-92 NSCLC; 36.6 µM in the test with SNB-75 CNS; 5.08 µM with MOLT-4 leukemia; 11.5 µM in the test on UACC-257 melanoma; 4.94 µM with SF-295 CNS. Also, the TGI turned out to be 7.95 µM in the test on MDA-MB-435, 5.44 µM in the test on HT29 colon, 4.05 µM in the test on COLO 205 colon and 8.52 µM in the test on BT-549 breast.
With `CC12CCC(O)CC1CCC1C2CCC2(C)C(C(=O)CC(O)C(F)(F)F)CCC12` (configuration not stated), the TGI in the test on MALME-3M melanoma is over 100 µM; with HOP-92 NSCLC it was over 85.2 µM; in the test on SNB-75 CNS, 81.1 µM; in the test on MOLT-4 leukemia it was 43.6 µM; in the test on UACC-257 melanoma, over 91.6 µM; in the test with SF-295 CNS, 26.7 µM. Moreover, the TGI in the test with MDA-MB-435 was over 100 µM; in the test with HT29 colon, 19.6 µM; with COLO 205 colon, 33.1 µM; with BT-549 breast, over 100 µM.
Turning to `CC1=C(CO)C(=O)O[C@@H]([C@@H](CO)[C@H]2CCC3C4C[C@@H](O)[C@@]5(O)CC=CC(=O)[C@]5(C)C4CC[C@@]32C)C1` (some centres not stated), the TGI in the test with MALME-3M melanoma, in the test on HOP-92 NSCLC, in the test with SNB-75 CNS, in the test with MOLT-4 leukemia, in the test on UACC-257 melanoma and with SF-295 CNS was over 100 µM throughout. The TGI with MDA-MB-435, with HT29 colon, with COLO 205 colon and in the test with BT-549 breast was over 100 µM throughout.
Regarding `C#C[C@]1(O)CC[C@H]2[C@@H]3CCC4=C/C(=N/OC(=O)c5cccc6c(=O)c7ccccc7[nH]c56)CC[C@@H]4[C@H]3CC[C@@]21C`, the TGI in the test on MALME-3M melanoma was over 100 µM; with HOP-92 NSCLC, over 100 µM; in the test on SNB-75 CNS it was over 100 µM; with MOLT-4 leukemia, 38.1 µM; in the test with UACC-257 melanoma, over 100 µM; in the test on SF-295 CNS it was over 100 µM. In addition, the TGI in the test with MDA-MB-435 is over 100 µM; in the test on HT29 colon it was over 100 µM; with COLO 205 colon, 77.1 µM; in the test on BT-549 breast, over 100 µM.
In the case of `CC(=O)O[C@H]1CC[C@@]2(C)C(=CC[C@H]3[C@@H]4C[C@H](N5CCOCC5)[C@H](OC(C)=O)[C@@]4(C)CC[C@@H]32)C1`, the TGI with MALME-3M melanoma, in the test on HOP-92 NSCLC, in the test with SNB-75 CNS, in the test with MOLT-4 leukemia, with UACC-257 melanoma and in the test on SF-295 CNS was over 100 µM throughout. Further, the TGI with MDA-MB-435, in the test on HT29 colon, in the test on COLO 205 colon and in the test on BT-549 breast was over 100 µM each time.
As for `O=C1c2cccnc2-c2nccc3c2c1nc1cc(Br)ccc13`, the TGI in the test with MALME-3M melanoma is 0.374 µM; with HOP-92 NSCLC it was 2.02 µM; with SNB-75 CNS, 0.81 µM; in the test on MOLT-4 leukemia, 0.854 µM; in the test on UACC-257 melanoma, 0.837 µM; in the test on SF-295 CNS, 0.72 µM. The TGI in the test on MDA-MB-435 worked out at 0.607 µM; in the test with HT29 colon, 2.45 µM; in the test with COLO 205 colon, 2.12 µM; in the test on BT-549 breast, 1.23 µM.
In the case of `C[N+]12CCCCC1C(CN1C(=O)Cc3c4ccccc4c(c4ccccc34)CC1=O)CCC2` (configuration not stated), the TGI in the test with MALME-3M melanoma, in the test on HOP-92 NSCLC, in the test on SNB-75 CNS, in the test on MOLT-4 leukemia, with UACC-257 melanoma and with SF-295 CNS was over 100 µM in each case. In addition, the TGI with MDA-MB-435, in the test on HT29 colon, in the test with COLO 205 colon and with BT-549 breast was over 100 µM each time.
For `NNC(=O)CSc1nc2ccccc2c(=O)n1N`, the TGI in the test with MALME-3M melanoma is over 100 µM; in the test on HOP-92 NSCLC, 57.7 µM; in the test with SNB-75 CNS it was 33 µM; with MOLT-4 leukemia it was over 100 µM; in the test on UACC-257 melanoma, over 100 µM; with SF-295 CNS, over 100 µM. Besides, the TGI in the test on MDA-MB-435, with HT29 colon, in the test with COLO 205 colon and in the test on BT-549 breast was over 100 µM throughout.
